Data: PMC9631755, “Development of AB3-Type Novel Phthalocyanine and Porphyrin Photosensitizers Conjugated with Triphenylphosphonium for Higher Photodynamic Efficacy” (ACS Omega, 2022)
Read-outs that look alike come from different tables or passages of the source.

Key:
[1] = tested on: BEAS-2B cells; experiment: MTT cell viability of BEAS-2B cells, dark and 660 nm light irradiation; assay type: cell-based
Method: (§1) A549 and BEAS-2B cells were obtained from ATCC with reference numbers CCL-185 and CRL-9609, respectively. A549 cells were cultured in DMEM (with 2 mM L-glutamine, Gibco, United States), while RPMI 1640 (with 2 mM L-glutamine, Gibco, United States) was used for BEAS-2B cells. Both media were supplemented with 10% fetal bovine serum (FBS) (Gibco, United States), and cells were cultured in an incubator with a humidified atmosphere of 5% CO2 at 37 °C.[24]
(§2) For the evaluation of cytotoxic activity, an MTT assay was employed. Cells were seeded 1 day prior to treatment in 96-well plates at a concentration of 20,000 cells/mL. Followed by overnight incubation, the cells were exposed to LuPcPox(OAc), AB3TPP-Pc, AB3TPP-Por-C4, PP-Por-C6, H2TPP, and ZnPc molecules. All molecules were dispersed in DMSO. The working concentrations of the molecules contain <0.1% (v/v) of DMSO. Time-point assays were performed after 24 and 48 h. The final concentration of MTT was 0.5 mg/mL, and after 3 h incubation, absorbances were measured at 545 nm. The absorbance of the blank group which was the samples containing media with 10% FBS was subtracted from the measurements and cell viability was determined by the following formula.[52] The control group was composed of nontreated cells. Cell viability (%) = (absorbance value of sample/absorbance value of control) × 100.
(§3) The cells seeded at a concentration of 20,000 cells/mL in the 96-well plates were irradiated at 660 nm using an LED light array producing a flux of 0.036 J cm^–2 s^–1 (0.036 W/cm^2). In order to determine the cytotoxic effects of Pcs under light, one group of each cell line was exposed to an LED array for 30 min at room temperature and then returned to the incubator, while another group was incubated in the dark.[24] The delivered red photons on the cells were measured by a calibrated PAR meter (Apogee SQ-520). The temperature of the chamber under continuous light flux was monitored synchronously for ensuring the stability of the conditions.[53]
(§4) The cells were seeded at a concentration of 20,000 cells/mL on 96-well plates and incubated for 24 h. The Pcs were added in 0.1, 2.5, 5, 10, 25, and 50 μM concentrations for evaluating the toxicity with/without light except for LuPcPox(OAc). The LuPcPox(OAc) was added into the wells as 0.01, 0.03, 0.09, 0.25, 0.50, and 1 μM concentration because a concentration over 1.0 μM kills the cells immediately. The Pcs in the cell media were discarded, and a fresh medium was added to the cells to remove noninternalized molecules. The viability of the cells was recorded for 24 and 48 h after the addition of Pcs. The cells were irradiated for 30 min.
(§5) IC50 values of the Pcs were determined by fitting the cell’s viability curve acquired from the spectroscopic data. All the values were obtained by using Origin Software (Figure 7).

[2] = Fluorescence quantum yield, comparative method; assay type: physicochemical; conditions: THF
Method: Excitation spectra in the Q-band region have been obtained by monitoring the fluorescence emission spectra at the indicated wavelength of porphyrins and phthalocyanine compounds. The fluorescence quantum yields (ΦF) of all structures were determined in THF, using a comparative method. The values were 0.009, 0.14, 0.13, and 0.13, for LuPcPox(OAc), AB3TPP-Pc, AB3TPP-Por-C4, and AB3TPP-Por-C6, respectively. The lowest ΦF value 0.009 belongs to LuPcPox(OAc) and is close to the value (0.004) obtained in DMSO in our previous study.[24] This could be the result of the higher atomic number of lutetium in the cavity of phthalocyanine which may facilitate intersystem crossing to its excited triplet state after excitation. However, the difference and purpose of this study from our previous work are to examine whether there will be a change in the fluorescence property with the addition of the mitochondria targeting the TPP group to the structure. We achieved this goal. The ΦF value of AB3TPP-Pc was 0.14, although it was lower than the reference molecule (ZnPc ΦF= 0.25),[43] and the presence of the TPP group on the structure increased the fluorescence efficiency approximately 15 times that of LuPcPox(OAc) ΦF = 0.009. […] The normalized absorption, excitation, and emission spectra for all compounds are shown in Figure 3, and ΦF values are given in Table 2.

[3] = Singlet-oxygen quantum yield, direct method (phosphorescence); assay type: physicochemical; conditions: for ΦΔ singlet-oxygen quantum yield: THF
Method: For PDT, tumor cells are killed by ROS that is produced by a photosensitizer; thus, the production of ^1O2 by the photosensitizer plays a vitally important role in PDT.[46] To evaluate the photosensitizing properties of novel macrocyclic structures, singlet-oxygen quantum yields have been evaluated by a direct method in THF. Singlet-oxygen phosphorescence spectra for all compounds excited with a xenon-arc source at their respective absorption maxima were recorded by a near-IR-sensitive detector. ZnPc and H2TPP were used as the standard for phthalocyanine and porphyrin derivatives that have singlet oxygen yields of 0.53[47] and 0.58[33],[34] in THF, respectively. Singlet-oxygen phosphorescence spectra of Pc and Por. derivatives in THF at equal absorbance (0.23) were obtained to directly determine ΦΔ (Figures S20 and S21). […] Apparently, AB3TPP-Pc is almost three times as efficient as LuPcPox(OAc) in producing singlet oxygen, matching well with our proposal that the TPP-conjugated phthalocyanine could serve as an ideal candidate for mitochondrial-targeted PDT reagent.

[4] = UV-vis absorption, extinction coefficient at 660 nm; assay type: physicochemical; conditions: 2 × 10^–6 M in THF
Method: In our study, the Lambert–Beer law indicating a linear relationship between absorbance and concentrations was obeyed for all porphyrin and phthalocyanine compounds in dimethylsulfoxide (DMSO) in the whole 2–8 μM concentration measurement range (Figure 2). The UV–vis spectra of macrocyclic compounds were recorded in both DMSO and tetrahydrofuran (THF), solvents in which all compounds are soluble (Figures S13–S19). […] This diverse absorption behavior of complexes comes from their different subunits which are isoindoles and pyrroles in the skeleton of macrocycles for phthalocyanine and porphyrin, respectively.[40],[41]Table 1 summarizes the wavelengths and associated extinction coefficients in Q and Soret (B) bands in DMSO.

[5] = tested on: A549 cells; experiment: MTT cell viability of A549 cells, dark and 660 nm light irradiation; assay type: cell-based; conditions: for IC50: 24 h
Method: as §1, §2, §3, §4, §5

[6] = Fluorescence lifetime, TCSPC; assay type: physicochemical; conditions: THF, mono-exponential decay
Method: Luminescence lifetime measurements were performed on a fluorescence spectroscopy Fluorolog-3 (HORIBA Jobin Yvon) system in the single-photon counting (TCSPC) mode. A NanoLED light source (HORIBA Jobin Yvon) of λmax 390 nm was used for 395 nm excitation. All measurements were carried out in 0.2 ab. solutions in THF at room temperature. […] AB3TPP-Pc and LuPcPox(OAc) show a biexponential decay. The short-lived species are due to component features τf of 2.54 ns (responsible for 35.78%) and τf of 2.14 ns (responsible for 32.47%) photons emitted by AB3TPP-Pc and LuPcPox(OAc), respectively. The longer lifetime has a τf of 4.77 ns (assume 64.22%) and 3.11 ns (assume 67.53%) of emission for AB3TPP-Pc and LuPcPox(OAc), respectively.

[7] = reference substance; cited from earlier work
[8] = THF, standard; cited from earlier work
[9] = Homo sapiens, A549, light (660 nm, 30 min)
[10] = Homo sapiens, dark, 24 h, read-out: IC50
[11] = Homo sapiens, light (660 nm, 30 min), 24 h, read-out: IC50

| Compound | ΦF fluorescence quantum yield [2] | ΦΔ singlet-oxygen quantum yield [3] | log ε (660 nm) [4] | IC50 ([5]; Homo sapiens, A549, dark) [µM] | IC50 [5, 9] [µM] | τF fluorescence lifetime [6] [ns] | IC50 [1, 10] [µM] | IC50 [1, 11] [µM] | other results |
| --- | --- | --- | --- | --- | --- | --- | --- | --- | --- |
| COCCOCCOCCSc1cc2c(cc1SCCOCCOCCOC)-c1nc-2nc2[nH]c(nc3nc(nc4[nH]c(n1)c1cc(SCCOCCOCCOC)c(SCCOCCOCCOC)cc41)-c1cc(SCCOCCOCCOC)c(SCCOCCOCCOC)cc1-3)c1cc(SCCCCCCOCCCCCC[P+](c3ccccc3)(c3ccccc3)c3ccccc3)ccc21 [AB3TPP-Pc] | 0.14 | 0.75 | 4.18 |  |  |  |  |  | cytotoxic concentration ([1]; dark, 24 and 48 h): < 6 µM; IC50 ([1]; light, 48 h, read-out: IC50 (cytotoxic concentration)): 2.4 µM; increase of fluorescence efficiency over LuPcPox(OAc) [2]: approximately 15 times; singlet oxygen-producing capacity compared to LuPcPox(OAc) [3]: ~3 times; singlet oxygen-producing capacity, more efficient with respect to ZnPc [3]: 50% |
| [Zn+2].c1ccc2c(c1)-c1nc-2nc2[n-]c(nc3nc([n-]c4nc(n1)-c1ccccc1-4)-c1ccccc1-3)c1ccccc21 [ZnPc, zinc (II)phthalocyanine, reference compound] |  |  |  |  |  | 2.72 |  |  |  |

More lines, main results first:

| ΦF fluorescence quantum yield [2] | ΦΔ singlet-oxygen quantum yield [3] | log ε (660 nm) [4] | IC50 ([5]; Homo sapiens, A549, dark) [µM] | IC50 [5, 9] [µM] | τF fluorescence lifetime [6] [ns] | Compound | IC50 [1, 10] [µM] | IC50 [1, 11] [µM] | other results |
| --- | --- | --- | --- | --- | --- | --- | --- | --- | --- |
| 0.13 | 0.57 | 3.43 | > 50 | 10.3 | 8.87 | COc1ccc(-c2c3nc(c(-c4ccc(OC)cc4)c4ccc([nH]4)c(-c4ccc(OCCCC[P+](c5ccccc5)(c5ccccc5)c5ccccc5)cc4)c4nc(c(-c5ccc(OC)cc5)c5ccc2[nH]5)C=C4)C=C3)cc1 [AB3TPP-Por-C4] | 11.5 | < 0.1 | increase of toxicity under light compared to the dark (from IC50) ([5]; A549): 2 fold; cytotoxicity (in words) ([5]; A549, dark, up to 48 h): noncytotoxic |
| 0.13 | 0.58 | 3.56 | 24.9 | 3.6 | 8.91 | COc1ccc(-c2c3nc(c(-c4ccc(OC)cc4)c4ccc([nH]4)c(-c4ccc(OCCCCCC[P+](c5ccccc5)(c5ccccc5)c5ccccc5)cc4)c4nc(c(-c5ccc(OC)cc5)c5ccc2[nH]5)C=C4)C=C3)cc1 [AB3TPP-Por-C6] | 10.3 | < 0.1 | reduction of cell viability compared to AB3Por-C4 (phototoxicity) ([5]; A549): 2 fold; reduction of cell viability compared to H2TPP (phototoxicity) ([5]; A549): 5 fold; critical concentration (decrease in viability) ([5]; A549, after light irradiation, 24 and 48 h): 2.5 µM |
| 0.13 | 0.58 |  |  |  | 10.3 | Tetraphenylporphyrin [H2TPP, reference compound] |  |  | IC50 ([5]; A549, dark): 19.7 µM; IC50 ([5]; A549, light (660 nm, 30 min)): 19.7 µM; IC50 ([1]; dark, 24 h, read-out: IC50): 12.1 µM; IC50 ([1]; light (660 nm, 30 min), 24 h, read-out: IC50): 6.8 µM; ΦF fluorescence quantum yield [7]: 0.13; ΦΔ singlet-oxygen quantum yield [8]: 0.58 |
